Source: the supplement of paper PMC10307832

Experiments:
Assay in all cases: relative viability (nuclei count vs DMSO), 5 days (fraction); higher = more cells survive
201T = system: 201T
Summary of the method: (§1)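 The day after seeding in 1536-well plates, lung cancer cell lines were treated by pin tool with a single drug, or with a fixed anchor-drug dose together with five library-drug doses (not always all listed) in √10 steps. After 5 days, a combined fix-and-stain solution (final 0.05% Triton X-100, 1% formaldehyde, 1 ug/ml Hoechst) was added. Nuclei counted on 4× images gave relative viability as treated counts over vehicle counts, reported as the median of duplicate plates.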

A-427 = system: A-427
Summary of the method: as §1

COR-L23 = system: COR-L23
Summary of the method: as §1

HARA = system: HARA
Summary of the method: as §1

HCC-78 = system: HCC-78
Summary of the method: as §1

LCLC-103H = system: LCLC-103H
Summary of the method: as §1

LCLC-97TM1 = system: LCLC-97TM1
Summary of the method: as §1

LK-2 = system: LK-2
Summary of the method: as §1

LOU-NH91 = system: LOU-NH91
Summary of the method: as §1

LXF-289 = system: LXF-289
Summary of the method: as §1

NCI-H1650 = system: NCI-H1650
Summary of the method: as §1

NCI-H1651 = system: NCI-H1651
Summary of the method: as §1

NCI-H1793 = system: NCI-H1793
Summary of the method: as §1

NCI-H2347 = system: NCI-H2347
Summary of the method: as §1

NCI-H23 = system: NCI-H23
Summary of the method: as §1

NCI-H2405 = system: NCI-H2405
Summary of the method: as §1

NCI-H520 = system: NCI-H520
Summary of the method: as §1

NCI-H522 = system: NCI-H522
Summary of the method: as §1

NCI-H647 = system: NCI-H647
Summary of the method: as §1

NCI-H838 = system: NCI-H838
Summary of the method: as §1

PC-3 [JPC-3] = system: PC-3 [JPC-3]
Summary of the method: as §1

RERF-LC-KJ = system: RERF-LC-KJ
Summary of the method: as §1

UMC-11 = system: UMC-11
Summary of the method: as §1

Compound `CCNC(=O)c1noc(-c2cc(C(C)C)c(O)cc2O)c1-c1ccc(CN2CCOCC2)cc1` [Luminespib] + Cc1nc(Nc2ncc(C(=O)Nc3c(C)cccc3Cl)s2)cc(N2CCN(CCO)CC2)n1 [Dasatinib] (partner 0.075 µM) has a relative viability (201T; first compound 0.002 µM) of 0.524, a relative viability (201T; first compound 0.006325 µM) of 0.614 and a relative viability (201T; first compound 0.02 µM) of 0.506. The relative viability (201T; first compound 0.06325 µM) was 0.569, the relative viability (201T; first compound 0.2 µM) was 0.237 and the relative viability (A-427; first compound 0.002 µM) was 0.779. It also gave a relative viability (A-427; first compound 0.006325 µM) of 0.671, a relative viability (A-427; first compound 0.02 µM) of 0.483 and a relative viability (A-427; first compound 0.06325 µM) of 0.33. It also gave a relative viability (A-427; first compound 0.2 µM) of 0.128, a relative viability (COR-L23; first compound 0.002 µM) of 0.6 and a relative viability (COR-L23; first compound 0.006325 µM) of 0.363. The relative viability (COR-L23; first compound 0.02 µM) was 0.433, the relative viability (COR-L23; first compound 0.06325 µM) was 0.0438 and the relative viability (COR-L23; first compound 0.2 µM) was 0.0462. For the same compound, the relative viability (HARA; first compound 0.002 µM) was 0.224, the relative viability (HARA; first compound 0.006325 µM) was 0.279 and the relative viability (HARA; first compound 0.02 µM) was 0.205. The relative viability (HARA; first compound 0.06325 µM) was 0.0633, the relative viability (HARA; first compound 0.2 µM) was 0.0774 and the relative viability (HCC-78; first compound 0.002 µM) was 0.373. The relative viability (HCC-78; first compound 0.006325 µM) was 0.251, the relative viability (HCC-78; first compound 0.06325 µM) was 0.455 and the relative viability (HCC-78; first compound 0.2 µM) was 0.204. It also gave a relative viability (LCLC-103H; first compound 0.002 µM) of 0.493, a relative viability (LCLC-103H; first compound 0.006325 µM) of 0.491 and a relative viability (LCLC-103H; first compound 0.02 µM) of 0.41. For the same compound, the relative viability (LCLC-103H; first compound 0.06325 µM) was 0.536, the relative viability (LCLC-103H; first compound 0.2 µM) was 0.529 and the relative viability (LCLC-97TM1; first compound 0.002 µM) was 0.884. It also gave a relative viability (LCLC-97TM1; first compound 0.006325 µM) of 0.721, a relative viability (LCLC-97TM1; first compound 0.02 µM) of 0.986 and a relative viability (LCLC-97TM1; first compound 0.06325 µM) of 0.726. The relative viability (LCLC-97TM1; first compound 0.2 µM) was 0.106, the relative viability (LK-2; first compound 0.002 µM) was 0.267 and the relative viability (LK-2; first compound 0.006325 µM) was 0.293. It also gave a relative viability (LK-2; first compound 0.02 µM) of 0.251, a relative viability (LK-2; first compound 0.06325 µM) of 0.146 and a relative viability (LK-2; first compound 0.2 µM) of 0.128. The relative viability (LOU-NH91; first compound 0.002 µM) was 0.517, the relative viability (LOU-NH91; first compound 0.006325 µM) was 0.543 and the relative viability (LOU-NH91; first compound 0.02 µM) was 0.388. The relative viability (LOU-NH91; first compound 0.06325 µM) was 0.258, the relative viability (LOU-NH91; first compound 0.2 µM) was 0.29 and the relative viability (LXF-289; first compound 0.002 µM) was 0.271. It also gave a relative viability (LXF-289; first compound 0.006325 µM) of 0.238, a relative viability (LXF-289; first compound 0.02 µM) of 0.187 and a relative viability (LXF-289; first compound 0.06325 µM) of 0.0634. For the same compound, the relative viability (LXF-289; first compound 0.2 µM) was 0.0395, the relative viability (NCI-H1650; first compound 0.002 µM) was 0.326 and the relative viability (NCI-H1650; first compound 0.006325 µM) was 0.252. The relative viability (NCI-H1650; first compound 0.02 µM) was 0.162, the relative viability (NCI-H1650; first compound 0.06325 µM) was 0.192 and the relative viability (NCI-H1650; first compound 0.2 µM) was 0.168. The relative viability (NCI-H1651; first compound 0.002 µM) was 0.352, the relative viability (NCI-H1651; first compound 0.006325 µM) was 0.433 and the relative viability (NCI-H1651; first compound 0.02 µM) was 0.331. For the same compound, the relative viability (NCI-H1651; first compound 0.06325 µM) was 0.132, the relative viability (NCI-H1651; first compound 0.2 µM) was 0.107 and the relative viability (NCI-H1793; first compound 0.002 µM) was 0.39. The relative viability (NCI-H1793; first compound 0.006325 µM) was 0.359, the relative viability (NCI-H1793; first compound 0.02 µM) was 0.117 and the relative viability (NCI-H1793; first compound 0.06325 µM) was 0.116. For the same compound, the relative viability (NCI-H1793; first compound 0.2 µM) was 0.14, the relative viability (NCI-H2347; first compound 0.002 µM) was 0.299 and the relative viability (NCI-H2347; first compound 0.006325 µM) was 0.245. The relative viability (NCI-H2347; first compound 0.02 µM) was 0.291, the relative viability (NCI-H2347; first compound 0.06325 µM) was 0.256 and the relative viability (NCI-H2347; first compound 0.2 µM) was 0.198. The relative viability (NCI-H23; first compound 0.002 µM) was 0.839, the relative viability (NCI-H23; first compound 0.006325 µM) was 0.765 and the relative viability (NCI-H23; first compound 0.02 µM) was 0.517. For the same compound, the relative viability (NCI-H23; first compound 0.06325 µM) was 0.118, the relative viability (NCI-H23; first compound 0.2 µM) was 0.13 and the relative viability (NCI-H2405; first compound 0.002 µM) was 0.226. For the same compound, the relative viability (NCI-H2405; first compound 0.006325 µM) was 0.182, the relative viability (NCI-H2405; first compound 0.02 µM) was 0.178 and the relative viability (NCI-H2405; first compound 0.06325 µM) was 0.164. For the same compound, the relative viability (NCI-H2405; first compound 0.2 µM) was 0.138, the relative viability (NCI-H520; first compound 0.002 µM) was 0.17 and the relative viability (NCI-H520; first compound 0.006325 µM) was 0.209. For the same compound, the relative viability (NCI-H520; first compound 0.02 µM) was 0.198, the relative viability (NCI-H520; first compound 0.06325 µM) was 0.151 and the relative viability (NCI-H520; first compound 0.2 µM) was 0.173. For the same compound, the relative viability (NCI-H522; first compound 0.002 µM) was 1.1, the relative viability (NCI-H522; first compound 0.006325 µM) was 0.936 and the relative viability (NCI-H522; first compound 0.02 µM) was 0.776. For the same compound, the relative viability (NCI-H522; first compound 0.06325 µM) was 0.577, the relative viability (NCI-H522; first compound 0.2 µM) was 0.481 and the relative viability (NCI-H647; first compound 0.002 µM) was 0.199. The relative viability (NCI-H647; first compound 0.006325 µM) was 0.13, the relative viability (NCI-H647; first compound 0.02 µM) was 0.13 and the relative viability (NCI-H647; first compound 0.06325 µM) was 0.0549. The relative viability (NCI-H647; first compound 0.2 µM) was 0.0598, the relative viability (NCI-H838; first compound 0.002 µM) was 0.301 and the relative viability (NCI-H838; first compound 0.006325 µM) was 0.281. The relative viability (NCI-H838; first compound 0.02 µM) was 0.233, the relative viability (NCI-H838; first compound 0.06325 µM) was 0.189 and the relative viability (NCI-H838; first compound 0.2 µM) was 0.203. For the same compound, the relative viability (PC-3 [JPC-3]; first compound 0.002 µM) was 0.99, the relative viability (PC-3 [JPC-3]; first compound 0.006325 µM) was 0.945 and the relative viability (PC-3 [JPC-3]; first compound 0.02 µM) was 0.829. It also gave a relative viability (PC-3 [JPC-3]; first compound 0.06325 µM) of 0.863, a relative viability (PC-3 [JPC-3]; first compound 0.2 µM) of 0.25 and a relative viability (RERF-LC-KJ; first compound 0.002 µM) of 0.833. The relative viability (RERF-LC-KJ; first compound 0.006325 µM) was 0.897, the relative viability (RERF-LC-KJ; first compound 0.02 µM) was 0.603 and the relative viability (RERF-LC-KJ; first compound 0.06325 µM) was 0.232. The relative viability (RERF-LC-KJ; first compound 0.2 µM) was 0.234, the relative viability (UMC-11; first compound 0.002 µM) was 0.474 and the relative viability (UMC-11; first compound 0.006325 µM) was 0.488. The relative viability (UMC-11; first compound 0.02 µM) was 0.309, the relative viability (UMC-11; first compound 0.06325 µM) was 0.214 and the relative viability (UMC-11; first compound 0.2 µM) was 0.153.
